# “Also recorded” adds a separate entry of the source. Structures can show the parent of a compound that is named as a salt. Where two headings read alike, the source gives them in different places.
# How the values were obtained:
# [1] = system: histamine H3 autoreceptors; conditions: cats, oral, cited from earlier work
# HPA axis [2] = conditions: mice; cited from earlier work
# [3] = humans, cited from earlier work
# [4] = Plasma pharmacokinetics of 2-pyridylacetic acid after betahistine hydrochloride (LC/MS/MS); conditions: for Terminal elimination rate / Cmax: mean ± SD; for AUC(0-t) / Tmax / half-life / Cmax: plasma
# Protocol: Blood samples for pharmacokinetic analysis were collected just prior to study drug dosing, and at 0.5, 1, 1.5, 2, 3, and 4 hours. Samples (5 ml) were collected in tubes containing EDTA and were placed on ice after gentle shaking. Samples were centrifuged within 15 min at 4° C. at 3000×g for 10 min and plasma was separated into polypropylene tubes. Plasma was stored at −70° C. until further analysis.
# Plasma samples were analyzed using a validated liquid chromatography tandem mass spectroscopy (LC/MS/MS) as reported by Chen et al. with minor modifications. To 500 μL of plasma, 100 μL of 0.5 M orthophosphoric acid (H3PO4) was added. The mixed sample was extracted with 5 ml of ethyl acetate and 2-propanol mixture (97.5:2.5, v/v) and vortex-mixed thoroughly for 1 min. Sample was centrifuged at 2000×g for 10 min maintained at 4° C., the upper clear portion was carefully transferred to a glass tube and evaporated to dryness under nitrogen gas at 25° C. The residue was reconstituted with 100 μL of mobile phase and filtered using a Sep-pak® (Waters) SPE cartridges which was pre-equilibrated with mobile phase. The processed samples were analyzed using a liquid chromatography equipped with a Surveyor autosampler model Plus and a Surveyor quaternary gradient HPLC-pump (Thermo Fisher Scientific) connected to a linear ion trap-Fourier Transform LTQ-FT™ mass spectrometer operated in positive ion electrospray mode.
# Plasma concentration-time profile data were used to calculate Cmax, time to achieve Cmax (Tmax), terminal elimination half-life (T1/2), area under the plasma concentration-time curve from zero to last measurable time point (AUC0-t). The half life (T1/2) was calculated as 0.693/λz, where λz is the terminal-phase elimination rate constant. AUC0-t was calculated using the linear trapezoidal rule area under the curve (AUC0-t) from time zero to the time of the last measurable concentration (CT) at 4 hrs (last measurable time point).
# [5] = system: histamine release in the anterior hypothalamus; conditions: rats; cited from earlier work
# ADHD adults [6] = assay: ECG parameters (QT, QTc) after single-dose betahistine in ADHD adults; format: in vivo, human; conditions: for QT Baseline / QTc Baseline: baseline (pre-dose); for QT 2 hours / QTc 2 hours: 2 hours post-dose
# Text: (§1) Subjects were randomly assigned to active drug, dose, and/or placebo using a modified Latin Square design. Safety measures, including vital signs, electrocardiogram, peak respiratory flow, clinical laboratory tests, and logging of adverse events were observed.
# (§2) Those AEs which accounted for >10% of the total were headache (n=11), fatigue (n=8), somnolence (n=8) and dizziness (n=4). […] The ECG data is summarized in Table 1 and categorized as benign.
# Throughout the study, two subjects experienced a conversion of their baseline ECG from normal to abnormal but not clinically significant two hours following a dose of study drug betahistine. […] Each of these abnormal ECGs were not repeated in these same subjects with other doses of betahistine.
# [7] = system: adult human subjects having ADHD; conditions: in vivo
# Text: as §1
# There were 39 total adverse events (AEs) across 16 total subjects, of which 12/16 accounted for all 39 reports. Only 16/39 AEs were rated as moderate in severity. […] Of the 39 total AEs, 21/39 were judged by the investigator to be possibly related to study drug based primarily on proximity (within 3 hours) to study drug administration. Only 3/39 AEs were judged as probably related to study drug and consisted of orthostasis, drowsiness and agitation. All adverse events resolved within 24 hours of the visit and most resolved by the end of each study visit (each visit lasting 5-6 hours). One subject experienced orthostatic hypotension at 1 hour following study drug administration on two separate occasions (Visit 1 (rated as mild) and Visit 3 (rated as moderate), the later judged to be probably study drug-related.
# as §2
# ADHD adults [8] = assay: Heart rate and blood pressure change from baseline; format: in vivo, human
# Text: as §1
# Changes from baseline in heart rate and BP were not dose dependent, nor were changes in these cardiovascular parameters by dose appreciably different from the placebo condition.
# ADHD adults [9] = assay: Pulmonary function (forced expiratory volume); format: in vivo, human
# Protocol: as §1
# All pulmonary function readings were analyzed by a board certified pulmonologist and no report was rated clinically significant.
# ADHD adults [10] = assay: Continuous Performance Task (CPT) signal detection, A prime and B prime; format: in vivo, human
# Text: Subjects were randomly assigned to active drug, dose, and/or placebo using a modified Latin Square design. Safety measures, including vital signs, electrocardiogram, peak respiratory flow, clinical laboratory tests, and logging of adverse events were observed. […] Instead, the study used surrogate markers of ADHD efficacy which are widely accepted, such as the signal detection (A prime) measures from the Continuous Performance Task (CPT) and a Go-no-Go task. Improvements or enhanced signal detection for either of these tasks track well with clinical improvements measuring ADHD symptom severity and frequency. (Epstein et al., Relations Between Continuous Performance Test Performance Measures and ADHD Behaviors, J. of Abnormal Child Psych. 31:5, 543-54 (2001)). […] To reflect this design, the study was analyzed using a repeated-measures analysis of variance (ANOVA) model (in SAS version 9.2, using the MIXED procedure). Treatment (4 levels: 0, 50, 100, 200) and Period (3 levels) and their interaction were included as fixed within-subject factors. In the case of signal detection measures, measures over three repeated blocks in each of three sessions were averaged to produce a summary measure for that session. Sessions were performed prior to drug administration and at two and four hours post-administration. A third within-subject factor (time since drug administration in hours; 0, 2, and 4 hours) was included along with its interactions with the treatment and period effects. A compound-symmetry structure was assumed for the correlation pattern of the within-subject residuals (equivalent to allowing each subject to have an individual intercept term to account for correlation among repeat measures on the same subject). Principle hypothesis tests were comparisons of the average of the non-zero doses against the placebo, as well as comparisons of each individual non-zero dose versus placebo. These were performed as linear contrasts, two-sided, α=0.05.
# ADHD adults [11] = assay: Satiety Quotient (surrogate marker of appetite suppression); format: in vivo, human; conditions: RMANOVA, treatment 0, 50, 100, 200 mg
# Text: Instead, the study used surrogate markers of ADHD efficacy which are widely accepted, such as the signal detection (A prime) measures from the Continuous Performance Task (CPT) and a Go-no-Go task. Improvements or enhanced signal detection for either of these tasks track well with clinical improvements measuring ADHD symptom severity and frequency. (Epstein et al., Relations Between Continuous Performance Test Performance Measures and ADHD Behaviors, J. of Abnormal Child Psych. 31:5, 543-54 (2001)). […] To reflect this design, the study was analyzed using a repeated-measures analysis of variance (ANOVA) model (in SAS version 9.2, using the MIXED procedure). Treatment (4 levels: 0, 50, 100, 200) and Period (3 levels) and their interaction were included as fixed within-subject factors.
# HPA axis [12] = assay: Cortisol response / HPA axis activity in rats; format: in vivo, rat
# Text: Certain subtypes of depression have been associated with decreased function of the hypothalamic-pituitary-adrenal (HPA) axis as evidenced by low cortisol and/or decreased CRH and ACTH levels.
# healthy volunteers = conditions: cited from earlier work
# rats = conditions: cited from earlier work
# [13] = animal studies, peripheral administration; cited from earlier work
# [14] = system: patients with multiple sclerosis; conditions: cited from earlier work
# [15] = system: patients with cerebrovascular dementia; conditions: placebo-controlled trials; cited from earlier work
# [16] = after 100 mg betahistine hydrochloride
# [17] = RMANOVA, treatment 0, 50, 100, 200 mg
# [18] = RMANOVA, treatment 0, 50, 100, 200 mg, DF 3/29
compound,measurement,setting,value
CNCCc1ccccn1 [betahistine dihydrochloride],Dose required for rapid biological effect on histamine H3 autoreceptors,[1]; relative to human-equivalent 24-48 mg/day,5 fold and 10 fold higher equivalent doses were required
NNCCc1ccccc1 [phenelzine],Cortisol levels,HPA axis [2],increases cortisol levels
CNCCc1ccccn1.CS(=O)(=O)O.CS(=O)(=O)O [betahistine mesylate],Bioavailability,[3]; oral,less than 1%
O=C(O)Cc1ccccn1 [2-pyridylacetic acid],Half-life and Tmax across the dose levels,"[4]; 50, 100, 200 mg betahistine",remained unchanged
same,Terminal elimination rate,[4]; after 50 mg betahistine hydrochloride,0.43 ± 0.35 h⁻¹
same,Terminal elimination rate,[4]; [16],0.25 ± 0.18 h⁻¹
same,Terminal elimination rate,[4]; after 200 mg betahistine hydrochloride,0.28 ± 0.17 h⁻¹
same,AUC(0-t),"[4]; human, 50 mg",1300 ± 587 ng·h/mL
same,Tmax,"[4]; human, 50 mg",1.55 ± 0.44 h
same,half-life,"[4]; human, 50 mg",4.24 ± 1.68 h
same,Cmax,"[4]; human, 50 mg, Cmax, after 50 mg betahistine hydrochloride",611 ± 490 ng/mL
same,AUC(0-t),"[4]; human, 100 mg",2780 ± 1840 ng·h/mL
same,Tmax,"[4]; human, 100 mg",1.3 ± 0.35 h
same,half-life,"[4]; human, 100 mg",3.74 ± 1.97 h
same,Cmax,"[4]; human, 100 mg, Cmax, after 100 mg betahistine hydrochloride",1040 ± 673 ng/mL
same,AUC(0-t),"[4]; human, 200 mg",5250 ± 2430 ng·h/mL
same,Tmax,"[4]; human, 200 mg",2.05 ± 0.86 h
same,half-life,"[4]; human, 200 mg",3.88 ± 3.38 h
same,Cmax,"[4]; human, 200 mg, Cmax, after 200 mg betahistine hydrochloride",2040 ± 905 ng/mL
same,Cmax,[4]; [16],1043.88 ± 673.49 ng/mL
NC(=O)C[S+]([O-])C(c1ccccc1)c1ccccc1 (centres unmarked) [modafinil],Hypothalamic histamine release,[5],increase hypothalamic histamine release
CNCCc1ccccn1 [betahistine],"ECG data, category","ADHD adults [6]; 50, 100, 200 mg",benign
same,QT Baseline,ADHD adults [6]; betahistine 50 mg group,416 ± 33 ms
same,QTc Baseline,ADHD adults [6]; betahistine 50 mg group,416 ± 18 ms
same,QT 2 hours,ADHD adults [6]; betahistine 50 mg,403 ± 26 ms
same,QTc 2 hours,ADHD adults [6]; betahistine 50 mg,407 ± 18 ms
same,QT Baseline,ADHD adults [6]; betahistine 100 mg group,412 ± 27 ms
same,QTc Baseline,ADHD adults [6]; betahistine 100 mg group,409 ± 13 ms
same,QT 2 hours,ADHD adults [6]; betahistine 100 mg,395 ± 37 ms
same,QTc 2 hours,ADHD adults [6]; betahistine 100 mg,401 ± 14 ms
same,QT Baseline,ADHD adults [6]; betahistine 200 mg group,403 ± 37 ms
same,QTc Baseline,ADHD adults [6]; betahistine 200 mg group,410 ± 18 ms
same,QT 2 hours,ADHD adults [6]; betahistine 200 mg,400 ± 34 ms
same,QTc 2 hours,ADHD adults [6]; betahistine 200 mg,405 ± 17 ms
same,QT and rate corrected QTc (Bazett's) change from baseline,"ADHD adults [6]; betahistine 50, 100, 200 mg vs placebo (FIG. 1)",No clinically significant change
same,"Abnormal ECGs, clinical significance","ADHD adults [6]; two subjects abnormal but NCS at 2 hours (200 mg, 50 mg)",no abnormal ECGs were read as clinically significant
same,AEs judged possibly related to study drug,[7]; human,21/39
same,AEs judged probably related to study drug,[7]; human,3/39
same,AEs rated as moderate in severity,[7]; human,16/39
same,Total adverse events,[7]; human,39
same,AEs reported as severe,[7],No AEs were reported as severe
same,Relationship between frequency or severity of AEs and dose,[7],no relationship
same,Heart rate and blood pressure effects,"ADHD adults [8]; 50, 100, 200 mg, not dose dependent",minimal and judged as not clinically significant
same,Change in systolic blood pressure from baseline,"ADHD adults [8]; betahistine 50, 100, 200 mg vs placebo (FIG. 2)",No clinically significant change
same,Change in diastolic blood pressure from baseline,"ADHD adults [8]; betahistine 50, 100, 200 mg vs placebo (FIG. 3)",No clinically significant change
same,Effect on airway compliance and/or pulmonary function,ADHD adults [9]; FEV 25-75 at four hour post-dose,minimal or no effect
same,Change in forced expiratory volume in 1 second (FEV) from baseline,ADHD adults [9]; betahistine vs placebo (FIG. 4),No clinically significant change
same,"APRIME_CPT, Treatment effect, Pr > F",ADHD adults [10]; [17],0.0254
same,"BPRIME_CPT, Treatment effect, Pr > F",ADHD adults [10]; [17],0.0045
same,"APRIME_CPT, Treatment effect, F Value",ADHD adults [10]; [18],3.59
same,"BPRIME_CPT, Treatment effect, F Value",ADHD adults [10]; [18],5.38
same,Effect on attention (CPT sensitivity and inhibition),"ADHD adults [10]; adults with ADHD, single doses up to 200 mg",improves attention
same,"CPT A prime, effect vs placebo",ADHD adults [10]; betahistine vs placebo,demonstrated a treatment effect compared to placebo
same,"Satiety Quotient - 2 hrs, Treatment effect, Pr > F",ADHD adults [11],0.4475
same,"Satiety Quotient - 4 hrs, Treatment effect, Pr > F",ADHD adults [11],0.8360
same,"Satiety Quotient - 2 hrs, Treatment effect, F Value",ADHD adults [11]; DF 3/21,0.92
same,"Satiety Quotient - 4 hrs, Treatment effect, F Value",ADHD adults [11]; DF 3/21,0.28
same,Cortisol response to stress,HPA axis [12],increases the cortisol response to stress
same,Effect on decrease in cortisol after dexamethasone administration,HPA axis [12],counteracts the decrease in cortisol
same,"Biologic half-life, mean",[3],5 hours
same,"Biologic half-life, variability",[3],2-11 hours
same,Effects on arousal and vigilance,healthy volunteers; 32 mg dose vs placebo,no effect; also recorded: no noticeable CNS-stimulating effects
same,Effects on arousal and vigilance,healthy volunteers; single dose 64 mg vs placebo,greater than those observed with placebo; also recorded: only mild stimulant-like effects
same,Biologic effects on brain histamine or histamine H3 receptors,[1]; roughly the human dose (48 mg/day),no biologic effects
same,Eating behavior,rats,decrease eating behavior in rats in a dose-dependent manner
same,CNS concentration relative to plasma levels,[13],approximately half
same,Symptoms of fatigue,[14],statistically significant reduction
same,Motor activity and cognitive functioning,[15],increase motor activity and improve cognitive functioning

# Reference: patent US8242148B2 (priority 2005, dated 2012)
